Series [1] concerns the target T1, adenosine A1 receptor (Oryctolagus cuniculus, UniProt P34970).
T1 construct: Airway smooth muscle tissue was dissected from each rabbit and a membrane fraction prepared; from tissue; host or cells: rabbit airway smooth muscle, crude plasma membranes
T1 sequence (P34970 1-328): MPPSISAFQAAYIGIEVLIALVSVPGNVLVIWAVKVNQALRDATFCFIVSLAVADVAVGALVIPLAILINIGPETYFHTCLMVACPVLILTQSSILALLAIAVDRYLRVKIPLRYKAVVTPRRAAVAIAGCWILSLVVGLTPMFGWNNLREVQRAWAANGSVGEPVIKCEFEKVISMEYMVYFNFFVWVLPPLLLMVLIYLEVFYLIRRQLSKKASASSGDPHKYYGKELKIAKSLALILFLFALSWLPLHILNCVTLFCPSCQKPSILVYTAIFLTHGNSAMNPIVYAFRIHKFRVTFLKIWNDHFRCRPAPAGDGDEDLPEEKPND
Conditions: mismatch controls; Nyce & Metzger (1997); cited from earlier work.

The test system of series [2] is adenosine A1 receptor. The experiment in a line: Adenosine-induced bronchoconstriction (PC50 Adenosine) in allergic rabbits. Conditions: allergic rabbits; cross-over experiment; 20 mg total aerosolized oligo. It is filed as in vivo. The procedure: A fortuitous hoology between the rabbit and human DNA sequences within the adenosine A1 gene overlapping the initiation codon permitted the use of the phosphorothioate anti-sense oligonucleotides initially designed for use against the human adenosine A1 receptor in a rabbit model. Neonatal New Zealand white Pasteurella-free rabbits were immunized intraperitoneally within 24 hours of birth with 312 antigen units/ml house dust mite (D. farinae) extract (Berkeley Biologicals, Berkeley, Calif.), mixed with 10% kaolin. Immunizations were repeated weekly for the first month and then biweekly for the next 2 months. At 3-4 months of age, eight sensitized rabbits were anesthetized and relaxed with a mixture of ketamine hydrochloride (44 mg/kg) and acepromazine maleate (0.4 mg/kg) administered intramuscularly. The rabbits were then laid supine in a comfortable position on a small molded, padded animal board and intubated with a 4.0-mm intratracheal tube (Mallinkrodt, Inc., Glens Falls, N.Y.). A polyethylene catheter of external diameter 2.4 mm with an attached latex balloon was passed into the esophagus and maintained at the same distance (approximately 16 cm) from the mouth throughout the experiments. The intratracheal tube was attached to a heated Fleisch pneumotachograph (size 00; DOM Medical, Richmond, Va.), and flow was measured using a Validyne differential pressure transducer (Model DP-45161927; Validyne Engineering Corp., Northridge, Calif.) driven by a Gould carrier amplifier (Model 11-4113; Gould Electronic, Cleveland, Ohio). The esophageal balloon was attached to one side of the differential pressure transducer, and the outflow of the intratracheal tube was connected to the opposite side of the pressure transducer to allow recording of transpulmonary pressure. Flow was integrated to give a continuous tidal volume, and measurements of total lung resistance (RL) and dynamic compliance (Cdyn) were calculated at isovolumetric and flow zero points, respectively, using an automated respiratory analyzer (Model 6; Buxco, Sharon, Conn.). Animals were randomized and on Day 1 pretreatment values for PC50 were obtained for aerosolized adenosine. Anti-sense (HAdA1AS) or mismatched control (HAdA1MM) oligonucleotides were dissolved in sterile physiological saline at a concentration of 5000 μg (5 mg) per 1.0 ml. […] Aerosols of either saline, adenosine, or anti-sense or mismatch oligonucleotides were generated by an ultrasonic nebulizer (DeVilbiss, Somerset, Pa.), producing aerosol droplets 80% of which were smaller than 5:m in diameter. In the first arm of the experiment, four randomly selected allergic rabbits were administered anti-sense oligonucleotide and four the mismatched control oligonucleotide. On the morning of the third day, PC50 values (the concentration of aerosolized adenosine in mg/ml required to reduce the dynamic compliance of the bronchial airway 50% from the baseline value) were obtained and compared to PC50 values obtained for these animals prior to exposure to oligonucleotide. Following a 1 week interval, animals were crossed over, with those previously administered mismatch control oligonucleotide now administered anti-sense oligonucleotide, and those previously treated with anti-sense oligonucleotide now administered mismatch control oligonucleotide. Treatment methods and measurements were identical to those employed in the first arm of the experiment. […] For the purpose of calculation, PC50 values for these animals were set at 20 mg/ml. The values given therefore represent a minimum figure for anti-sense effectiveness. Actual effectiveness was higher.
Aerosols of either adenosine (0-20 mglnml), or anti-sense or one of two mismatch oligonucleotides (5 mg/ml) were separately prepared with an ultrasonic nebulizer (Model 646, DeVilbiss, Somerset, Pa.), which produced aerosol droplets, 80% of which were smaller than 5:m in diameter. […]

The next series relates to adenosine A3 receptor. Nature of the series: Inflammatory cells in bronchial lavage fluid after dust mite allergen. It is filed as in vivo, rabbit. Conditions: allergic rabbits, 20 mg oligo, lavage 3 hours later. The procedure:
The number of inflammatory cells was determined in their bronchial lavage fluid 3 hours later by counting at least 100 viable cells per lavage. The effect of anti-sense oligos III (SEQ ID NO: 9377) and IV (SEQ ID NO: 9378) upon granulocytes, and upon total cells in bronchial lavage were assessed following exposure to dust mite allergen. […] As is known in the art, granulocytes, especially eosinophils, are the primary inflammatory cells of asthma and the administration of anti-sense oligos III (SEQ ID NO: 9377) and IV (SEQ ID NO: 9378) reduced their numbers by 40% and 66%, respectively. […] This is also an important indicator of anti-inflammatory activity by the present anti-adenosine A3 agents of the invention. Inflammation is known to underlie bronchial hyperresponsiveness and allergen-induced bronchoconstriction in asthma. Both anti-sense oligonucleotides III (SEQ ID NO: 9377) and IV (SEQ ED NO: 9378), which are targeted to the adenosine A3 receptor, are representative of an important new class of anti-inflammatory agents which may be designed to specifically target the lung receptors of each species.

The next series concerns Intracellular Adenosine. The experiment in a line: In vivo effect on adenosine levels in rat tissues (HPLC). Also noted: species or system Fischer 344 rats. The procedure:
Folinic acid (50 mg/kg) was administered intraperitoneally once daily for fourteen days. […] Hearts were removed from animals and flash frozen in liquid nitrogen with 10 seconds of death. Liver and lungs were removed en bloc and flash frozen with 30 seconds of death. Brain tissue was subsequently dissected.

Series [3] has as its system HT-29 SF cells. The experiment in a line: Reversal of DHEA effect on cell cycle. The class given is cell-based, human. Conditions: 25 FM DHEA; supplement in medium; 48 and 72 hours.
For series [4], the system named is HT-29 SF cells. Nature of the series: Reversal of DHEA-mediated growth inhibition. Conditions: 25 μM DHEA; supplement in medium; 48 hours. It is filed as cell-based, human.
Series [5] has as its target B2 bradykinin receptor (rabbit airway smooth muscle membranes) (rabbit) (UniProt Q28642). Nature of the series: radioligand binding, airway smooth muscle membranes; saline control rabbits.
The target is the same in series [6]. The experiment in a line: radioligand binding, airway smooth muscle membranes; rabbits treated with A1MM1 mismatch control, 20 mg.
Series [7] has the same target. Nature of the series: radioligand binding, airway smooth muscle membranes; rabbits treated with A1 receptor anti-sense oligo, 0.2 mg.
Series [8] shares this target. Nature of the series: radioligand binding, airway smooth muscle membranes; rabbits treated with B2A bradykinin receptor anti-sense oligo, 20 mg.
Series [9] has the same target. The experiment in a line: radioligand binding, airway smooth muscle membranes; rabbits treated with B2MM mismatch control, 2 mg.
For series [10] the target is unchanged. The experiment in a line: radioligand binding, airway smooth muscle membranes; rabbits treated with A1 receptor anti-sense oligo, 20 mg.
The target is the same in series [11]. Nature of the series: radioligand binding, airway smooth muscle membranes; rabbits treated with A1 receptor anti-sense oligo, 2 mg.
The target is the same in series [12]. Nature of the series: radioligand binding, airway smooth muscle membranes; rabbits treated with B2A bradykinin receptor anti-sense oligo, 0.2 mg.
Series [13] has the same target. Nature of the series: radioligand binding, airway smooth muscle membranes; rabbits treated with A1MM1 mismatch control, 2 mg.
Series [14] shares this target. Nature of the series: radioligand binding, airway smooth muscle membranes; rabbits treated with B2MM mismatch control, 20 mg.
For series [15] the target is unchanged. Nature of the series: radioligand binding, airway smooth muscle membranes; rabbits treated with B2A bradykinin receptor anti-sense oligo, 2 mg.
Series [16] shares this target. The experiment in a line: radioligand binding, airway smooth muscle membranes; rabbits treated with B2MM mismatch control, 0.2 mg.
Where [17] appears, read: once daily 14 days, DHEA 300 mg/kg, methyltestosterone 40 mg/kg (120 mg/kg in M + F.A.), folinic acid 50 mg/kg, mean ± SEM.
Where [18] appears, read: daily for two weeks, DHEA or high dose methyltestosterone.
Where [19] appears, read: methyltestosterone 120 mg/kg, mean ± SEM.

We go through eight compounds from patent publication US20070021360A1, “Compositions, formulations and kit with anti-sense oligonucleotide and anti-inflammatory steroid and/or obiquinone for treatment of respiratory and lung disesase” (priority 2001, published 2007).

Chain of B2 bradykinin receptor (rabbit airway smooth muscle membranes) (rabbit) (Q28642 whole entry): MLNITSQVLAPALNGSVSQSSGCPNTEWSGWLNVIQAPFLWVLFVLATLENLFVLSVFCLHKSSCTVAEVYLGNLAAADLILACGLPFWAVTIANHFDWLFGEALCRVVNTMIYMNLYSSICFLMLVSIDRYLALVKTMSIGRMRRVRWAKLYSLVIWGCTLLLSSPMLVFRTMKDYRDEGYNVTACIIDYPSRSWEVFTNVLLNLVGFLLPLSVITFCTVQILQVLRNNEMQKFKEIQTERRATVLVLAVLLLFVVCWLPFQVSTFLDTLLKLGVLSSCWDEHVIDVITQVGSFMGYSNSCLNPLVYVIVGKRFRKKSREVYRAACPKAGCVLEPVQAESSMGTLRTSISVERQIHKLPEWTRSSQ

For “5′-GATGGAGGCGGGCATGGCGGG-3 [Oligo A1MM3, reference compound]”, the “effect upon any of the targeted receptors (A1, A2 or B2)” value at adenosine A1 receptor [1] is “absolutely no effect”. The “effect on PC50 Adenosine value” in the series with adenosine A1 receptor [2] is listed as “no effect”.
Turning to “5′-GGC CCA GGG CCA GCC-31 (antisense GGCCCAGGGCCAGCC; all phosphorothioate, sugars by position and methylation of C not given here) [Oligo IV, targets adenosine A3 receptor mRNA +386 to +401]”, in the series with adenosine A3 receptor, the “reduction of granulocyte numbers in bronchial lavage” value stood at 66% and the “reduction of total number of cells in bronchial lavage fluid” value was determined as 40%.
Regarding `Nc1nc(=O)c2c([nH]1)NCC(CNc1ccc(C(=O)N[C@@H](CCC(=O)O)C(=O)O)cc1)N2C=O` (mixture of isomers) [Folinic Acid (F.A.), Folinic acid], in the series on Intracellular Adenosine (folinic acid 50 mg/kg intraperitoneally), the “effect on adenosine levels when administered alone” value is listed as “increase in adenosine levels for all organs studied”. In addition, the “effect of co-administration on steroid-mediated adenosine depletion” value with Intracellular Adenosine (folinic acid co-administered with DHEA or methyltestosterone) is on record as “completely abrogated steroid-mediated adenosine depletion”. Also, in the series with Intracellular Adenosine (setting [17]), the “Intracellular Adenosine, Brain” value was found to be 0.72 ± 0.09 nmol/mg protein and the “Intracellular Adenosine, Heart” value came to 12.4 ± 2.1 nmol/mg protein.
In the case of `CC(C)CCC[C@@H](C)[C@H]1CC[C@H]2[C@@H]3CC=C4C[C@@H](O)CC[C@]4(C)[C@H]3CC[C@]12C` [CH, cholesterol], the “prevention of DHEA-induced S phase depletion” value with HT-29 SF cells [3] was “very little effect at 48 hours and no effect at 72 hours”. Besides, the “reversal of DHEA-induced growth inhibition” value with HT-29 SF cells [4] was “no such effect”.
Take `C[C@@](O)(CCO)CC(=O)O` [MVA, mevalonic acid]: the “prevention of DHEA-induced S phase depletion” value in the series with HT-29 SF cells [3] is listed as “partially prevented this effect in the initial 48 hours but not after 72 hours”. Moreover, the “reversal of DHEA-induced growth inhibition” value with HT-29 SF cells [4] is on record as “partially overcome”.
On to `C[C@]12CCC(=O)C=C1CC[C@@H]1[C@@H]2CC[C@@]2(C)[C@H]1CC[C@]2(C)O` [Methyltestosterone, methyltestosterone], for which, in the series on Intracellular Adenosine (setting [18]), the “depletion of adenosine in brain” value was determined as 34% and the “depletion of adenosine in heart” value is reported as 22%. For the same compound, in the series on Intracellular Adenosine (in vivo), the “Intracellular Adenosine, Brain” value was found to be 0.42 ± 0.06 nmol/mg protein and the “Intracellular Adenosine, Heart” value came to 8.3 ± 1.0 nmol/mg protein. Besides, in the series with Intracellular Adenosine (setting [19]), the “Intracellular Adenosine, Brain” value turned out to be 0.32 ± 0.03 nmol/mg protein and the “Intracellular Adenosine, Heart” value was 6.0 ± 0.4 nmol/mg protein.
On to `CC(C)=CCC/C(C)=C/CC/C(C)=C/CC/C=C(\C)CC/C=C(\C)CCC=C(C)C` [SQ, squalene], for which the “reversal of DHEA-induced growth inhibition” value in the series with HT-29 SF cells [4] was “no such effect”.
With [3H]NPC 17731 (peptide), the Kd worked out at 0.39 nM in series [5]; 0.35 nM in [6]; 0.34 nM in [7]; 0.38 nM in series [8]; 0.37 nM in [9]; 0.39 nM in series [10]. For the same compound, the Kd in series [11] is 0.41 nM; in series [12], 0.35 nM; in series [13], 0.38 nM; in series [14] it was 0.41 nM; in [15] it was 0.34 nM; in series [16] it was 0.36 nM.

Usually Kd stands for a measure of binding affinity in units of concentration. The low end stands for tighter binding, the high end for weaker binding.
